Results on 19 molecules are retold here after US20250002507A1, “7,8-DIHYDRO-5H-1,6-NAPHTHYRIDINE DERIVATIVES AS POSITIVE ALLOSTERIC MODULATORS OF THE MUSCARINIC ACETYLCHOLINE RECEPTOR M4 FOR TREATING NEUROLOGICAL AND PSYCHIATRIC DISORDERS” (Vanderbilt University, priority 2021, published 2025).

Where two headings read alike, the source gives them in different places.

For the test, the target named is T1, Human M4 (Homo sapiens, UniProt P08173).
T1 construct: expressed in transfected cells
T1 sequence (P08173 1-479): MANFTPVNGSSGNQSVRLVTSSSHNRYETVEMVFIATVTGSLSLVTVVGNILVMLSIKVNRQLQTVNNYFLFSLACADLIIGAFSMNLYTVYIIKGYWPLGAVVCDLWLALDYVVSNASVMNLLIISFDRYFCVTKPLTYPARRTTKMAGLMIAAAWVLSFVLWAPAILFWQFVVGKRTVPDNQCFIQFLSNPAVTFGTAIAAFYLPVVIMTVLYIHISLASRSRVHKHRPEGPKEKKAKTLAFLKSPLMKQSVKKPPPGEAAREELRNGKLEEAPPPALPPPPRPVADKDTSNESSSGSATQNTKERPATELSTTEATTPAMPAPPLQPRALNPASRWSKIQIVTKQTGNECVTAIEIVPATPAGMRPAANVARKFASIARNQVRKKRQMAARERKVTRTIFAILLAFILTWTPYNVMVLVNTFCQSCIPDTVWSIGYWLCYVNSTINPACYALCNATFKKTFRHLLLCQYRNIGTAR
The test can be described thus: mAChR M4 cell-based functional assay (calcium flux, potentiation of EC20 acetylcholine response), hM4-Gqi5 CHO-K1 cells. To be noted: for Emax at 30 µM: CHO-K1, % ACh maximum at 30 μM; for EC50: calcium flux, read-out: Human M4 EC50. The method, then: Human and rat M4 cDNAs, along with the chimeric G protein Gqi5, were transfected into Chinese hamster ovary (CHO-K1) cells purchased from the American Type Culture Collection using Lipofectamine2000. hM4-Gqi5 cells were grown in Ham's F-12 medium containing 10% heat-inactivated fetal bovine serum (FBS), 20 mM HEPES, 50 μg/mL G418 sulfate, and 500 μg/mL Hygromycin B. rM4-Gqi5 cells were grown in DMEM containing 10% heat-inactivated FBS, 20 mM HEPES, 400 μg/mL G418 sulfate, and 500 μg/mL Hygromycin B.
For high throughput measurement of agonist-evoked increases in intracellular calcium, CHO-K1 cells stably expressing muscarinic receptors were plated in growth medium lacking G418 and hygromycin at 15,000 cells/20 μL/well in Greiner 384-well black-walled, tissue culture (TC)-treated, clear-bottom plates (VWR). Cells were incubated overnight at 37° C. and 5% CO2. The next day, cells were washed using an ELX 405 (BioTek) with assay buffer; the final volume was then aspirated to 20 μL. Next, 20 μL of a 2.3 μM stock of Fluo-4/acetoxymethyl ester (Invitrogen, Carlsbad, CA), prepared as a 2.3 mM stock in DMSO and mixed in a 1:1 ratio with 10% (w/v) Pluronic F-127 and diluted in assay buffer, was added to the wells and the cell plates were incubated for 50 min at 37° C. and 5% CO2. Dye was removed by washing with the ELX 405 and the final volume was aspirated to 20 μL. Compound master plates were formatted in an 11 point concentration-response curve (CRC) format (1:3 dilutions) in 100% DMSO with a starting concentration of 10 mM using a BRAVO liquid handler (Agilent). Test compound CRCs were then transferred to daughter plates (240 nL) using the Echo acoustic plate reformatter (Labcyte, Sunnyvale, CA) and then diluted into assay buffer (40 μL) to a 2× stock using a Thermo Fisher Combi (Thermo Fisher Scientific, Waltham, MA).
Calcium flux was measured using the Functional Drug Screening System (FDSS) 6000 or 7000 (Hamamatsu Corporation, Tokyo, Japan) as an increase in the fluorescent static ratio. Compounds were applied to cells (20 μL, 2×) using the automated system of the FDSS at 2-4 seconds into the protocol and the data were collected at 1 Hz. At 144 seconds, 10 μL of an EC20 concentration of the muscarinic receptor agonist acetylcholine was added (5×), followed by the addition of 12 μL of an EC80 concentration of acetylcholine at the 230 second time point (5×). Agonist activity was analyzed as a concentration-dependent increase in calcium mobilization upon compound addition. Positive allosteric modulator activity was analyzed as a concentration-dependent increase in the EC20 acetylcholine response. Antagonist activity was analyzed as a concentration-dependent decrease in the EC80 acetylcholine response. Concentration-response curves were generated using a four-parameter logistical equation in XLFit curve fitting software (IDBS, Bridgewater, NJ) for Excel (Microsoft, Redmond, WA) or Prism (GraphPad Software, Inc., San Diego, CA).
Compounds were synthesized as described above. Activity (EC50 and Emax) was determined in the mAChR M4 cell-based functional assay as described above and the data are shown in Tables 2-4. The compound number corresponds to the compound numbers used in Table 1.
For orientation: A change in cytosolic calcium serves as a functional read-out for many receptors and channels.

Setting [1] is: Table 3, Human M4, read-out: Emax (% ACh maximum at 30 μM).
[2] abbreviates: Table 3, potentiation of EC20 acetylcholine response, CHO-K1 cells.
Setting [3] is: Table 4, Human M4, read-out: Emax (% ACh maximum at 30 μM).
Setting [4] is: Table 4, potentiation of EC20 acetylcholine response, CHO-K1 cells.
[5] abbreviates: hM4-Gqi5 CHO-K1 cells, PAM of EC20 acetylcholine.

On to `Cc1c(N2Cc3cc(C(F)(F)F)cnc3C(C)(C)C2)nn2cnnc2c1C` [Compound 269, 6-(7,8-Dimethyl-[1,2,4]triazolo[4,3-b]pyridazin-6-yl)-8,8-dimethyl-3-(trifluoromethyl)-5,6,7,8-tetrahydro-1,6-naphthyridine], for which, under setting [1], the Emax (commonly the greatest response seen or fitted, relative to the assay's reference) at 30 µM came to 42%. Further, under setting [2], the EC50 (commonly the concentration needed to bring the measured effect to its halfway point) amounted to 1670 nM.

`Cc1c(N2CCc3ncc(-c4cc(F)cnc4Cl)cc3C2)nn2cnnc2c1C` [Compound 181, 3-(2-chloro-5-fluoropyridin-3-yl)-6-(7,8-dimethyl-[1,2,4]triazolo[4,3-b]pyridazin-6-yl)-5,6,7,8-tetrahydro-1,6-naphthyridine]: the Emax at 30 µM under setting [1] is 95%. Further, the EC50 under setting [2] was determined as 539 nM.

As to `Cc1c(N2CCc3ncc(Oc4cccc(F)c4)cc3C2)nn2cnnc2c1C` [Compound 160, 6-(7,8-dimethyl-[1,2,4]triazolo[4,3-b]pyridazin-6-yl)-3-(3-fluorophenoxy)-5,6,7,8-tetrahydro-1,6-naphthyridine], the Emax at 30 µM under setting [1] stood at 111%. Moreover, the EC50 under setting [2] was 145 nM.

For the molecule `Cc1c(N2CCc3ncc(-c4ccc(N5CCC5)nc4)cc3C2)nn2cnnc2c1C` [Compound 217, 3-(6-(azetidin-1-yl)pyridin-3-yl)-6-(7,8-dimethyl-[1,2,4]triazolo[4,3-b]pyridazin-6-yl)-5,6,7,8-tetrahydro-1,6-naphthyridine], the Emax at 30 µM under setting [1] was determined as 83%. Besides, under setting [2], the EC50 was found to be 223 nM.

Turning to `Cc1c(N2CCc3ncc(N4CC5CC4CO5)cc3C2)nn2c(C(F)(F)F)nnc2c1C` (centres unmarked) [Compound 316, 5-(6-(7,8-dimethyl-3-(trifluoromethyl)-[1,2,4]triazolo[4,3-b]pyridazin-6-yl)-5,6,7,8-tetrahydro-1,6-naphthyridin-3-yl)-2-oxa-5-azabicyclo[2.2.1]heptane], the Emax at 30 µM under setting [3] was 78%. For the same molecule, the EC50 under setting [4] came to 573 nM.

With `Cc1cc2nnc(C(F)(F)F)n2nc1N1CCc2ncc(Oc3cccc(F)c3F)cc2C1` [Compound 297, 3-(2,3-difluorophenoxy)-6-(7-methyl-3-(trifluoromethyl)-[1,2,4]triazolo[4,3-b]pyridazin-6-yl)-5,6,7,8-tetrahydro-1,6-naphthyridine], the Emax at 30 µM under setting [1] worked out at 100%. For the same molecule, the EC50 under setting [2] stood at 1100 nM.

For `Cc1c(N2CCc3ncc(C(=O)NCc4ccc(C(C)(C)O)cc4)cc3C2)nn2cnnc2c1C` [Compound 115, 6-(7,8-dimethyl-[1,2,4]triazolo[4,3-b]pyridazin-6-yl)-N-[[4-(1-hydroxy-1-methyl-ethyl)phenyl]methyl]-7,8-dihydro-5H-1,6-naphthyridine-3-carboxamide], under “human M4, read-out: Emax”, the Emax at 30 µM is 73%. In addition, the EC50 under setting [5] turned out to be 4180 nM.

Take `Cc1cc2nccn2nc1N1CCc2ncc(-c3c(C)noc3C)cc2C1` [Compound 110, 3,5-dimethyl-4-[6-(7-methylimidazo[1,2-b]pyridazin-6-yl)-7,8-dihydro-5H-1,6-naphthyridin-3-yl]isoxazole]: the Emax at 30 µM (human M4, read-out: Emax) was 62%. In addition, under setting [5], the EC50 worked out at 236 nM.

For the molecule `CCn1ccc(-c2cnc3c(c2)CN(c2nn4cnnc4c(C)c2C)CC3)n1` [Compound 129, 6-(7,8-dimethyl-[1,2,4]triazolo[4,3-b]pyridazin-6-yl)-3-(1-ethylpyrazol-3-yl)-7,8-dihydro-5H-1,6-naphthyridine], under “human M4, read-out: Emax”, the Emax at 30 µM turned out to be 99%. For the same molecule, the EC50 under setting [5] was found to be 210 nM.

For the molecule `Cc1c(N2Cc3cc(C(F)(F)F)cnc3C(C)C2)nn2cnnc2c1C` (centres unmarked) [Compound 246, 6-(7,8-dimethyl-[1,2,4]triazolo[4,3-b]pyridazin-6-yl)-8-methyl-3-(trifluoromethyl)-5,6,7,8-tetrahydro-1,6-naphthyridine], the Emax at 30 µM under setting [1] amounted to 90%. The EC50 under setting [2] is 408 nM.

Turning to `FC(F)(F)c1cnc2c(c1)CN(c1nn3cnnc3c3c1CCCC3)CC2` [Compound 345, 6-(3-(trifluoromethyl)-7,8-dihydro-1,6-naphthyridin-6(5H)-yl)-7,8,9,10-tetrahydro-[1,2,4]triazolo[3,4-a]phthalazine], under setting [3], the Emax at 30 µM is 63%. For the same molecule, the EC50 under setting [4] was determined as 1460 nM.

Consider `Cc1c(N2CCc3ncc(C(C)(C)O)cc3C2)nn2c(C(F)(F)F)nnc2c1C` [Compound 219, 2-(6-(7,8-dimethyl-3-(trifluoromethyl)-[1,2,4]triazolo[4,3-b]pyridazin-6-yl)-5,6,7,8-tetrahydro-1,6-naphthyridin-3-yl)propan-2-ol], for which the Emax at 30 µM under setting [1] was 81%. Further, under setting [2], the EC50 was 906 nM.

Take `Cc1c(N2CCc3ncc(-c4ccc(F)nc4)cc3C2)nn2c(C(F)(F)F)nnc2c1C` [Compound 245, 6-(7,8-dimethyl-3-(trifluoromethyl)-[1,2,4]triazolo[4,3-b]pyridazin-6-yl)-3-(6-fluoropyridin-3-yl)-5,6,7,8-tetrahydro-1,6-naphthyridine]: the Emax at 30 µM under setting [1] is 80%. Moreover, under setting [2], the EC50 was found to be 680 nM.

For the molecule `Cc1c(C2CC2)c(N2CCc3ncc(N4CCO[C@H](C)C4)cc3C2)nn2cnnc12` [Compound 348, (R)-4-(6-(7-cyclopropyl-8-methyl-[1,2,4]triazolo[4,3-b]pyridazin-6-yl)-5,6,7,8-tetrahydro-1,6-naphthyridin-3-yl)-2-methylmorpholine], the Emax at 30 µM under setting [3] was 66%. Besides, the EC50 under setting [4] was determined as 1850 nM.

As to `COc1ccc(Nc2cnc3c(c2)CN(c2nn4cnnc4c(C)c2C)CC3)c(F)c1` [Compound 28, 6-(7,8-dimethyl-[1,2,4]triazolo[4,3-b]pyridazin-6-yl)-N-(2-fluoro-4-methoxy-phenyl)-7,8-dihydro-5H-1,6-naphthyridin-3-amine], the Emax at 30 µM (human M4, read-out: Emax) was 93%. In addition, the EC50 under setting [5] came to 231 nM.

As to `Cc1cc2nccn2nc1N1CCc2ncc(-c3c(C)nn(C)c3C)cc2C1` [Compound 109, 6-(7-methylimidazo[1,2-b]pyridazin-6-yl)-3-(1,3,5-trimethylpyrazol-4-yl)-7,8-dihydro-5H-1,6-naphthyridine], the Emax at 30 µM (human M4, read-out: Emax) was determined as 81%. In addition, the EC50 under setting [5] is 450 nM.

For the molecule `Cc1c(N2CCc3ncc(-c4cc(-c5ccccc5)no4)cc3C2)nn2cnnc2c1C` [Compound 132, 5-[6-(7,8-dimethyl-[1,2,4]triazolo[4,3-b]pyridazin-6-yl)-7,8-dihydro-5H-1,6-naphthyridin-3-yl]-3-phenyl-isoxazole], the Emax at 30 µM (human M4, read-out: Emax) was determined as 81%. Further, under setting [5], the EC50 was determined as 1950 nM.

Consider `Cc1cc2nncn2nc1N1CCc2ncc(-c3cnn(C4CCCCC4)c3)cc2C1` [Compound 106, 3-(1-cyclohexylpyrazol-4-yl)-6-(7-methyl-[1,2,4]triazolo[4,3-b]pyridazin-6-yl)-7,8-dihydro-5H-1,6-naphthyridine], for which the Emax at 30 µM (human M4, read-out: Emax) is 59%. In addition, the EC50 under setting [5] amounted to 234 nM.

Take `Cc1c(N2CCc3ncc(Nc4cccnc4F)cc3C2)nn2cnnc2c1C` [Compound 82, 6-(7,8-dimethyl-[1,2,4]triazolo[4,3-b]pyridazin-6-yl)-N-(2-fluoro-3-pyridyl)-7,8-dihydro-5H-1,6-naphthyridin-3-amine]: for the setting “human M4, read-out: Emax”, the Emax at 30 µM amounted to 99%. Under setting [5], the EC50 is 119 nM.
